Measurements from US6818407B2, “Anti-endotoxic antimicrobial cationic peptides and methods of use therfor” (priority 1998, dated 2004).
Ends that are not written are not given here.

Legend:
[1] = tested on: mutant (Nal B, H744) of P. aeruginosa; test: microbe, parasite or virus in culture; type: cell-based; conditions: for (B) MIC of Cipro when combined with peptide: ciprofloxacin with peptide at concentration (A); for (B) MIC of Cipro when combined with peptide / (A) Peptide doses together with Cipro: Nal B, H744; for MIC A MIC of Peptides: peptide alone, P. aeruginosa mutant Nal B, H744 (Table 5); for (A) Peptide doses together with Cipro: peptide concentration in combination with ciprofloxacin
Description: (§1) The biological activity of the peptides can be determined by standard methods known to those of skill in the art, such as Aminimal inhibitory concentration (MIC)≅ assay described in the present examples, whereby the lowest concentration at which no change in OD is observed for a given period of time is recorded as MIC. Alternatively, Afractional inhibitory concentration (FIC)≅ is also useful for determination of synergy between the peptides of the invention, or the peptides in combination with known antibiotics. FICs are performed by checkerboard titrations of peptides in one dimension of a microtiter plate, and of antibiotics in the other dimension, for example. The FIC is calculated by looking at the impact of one antibiotic on the MIC of the other and vice versa. […] Preferably, an FIC of less than 0.5 is obtained for synergism. As used herein, FIC can be determined as follows: [formula]
(§2) To test whether the peptides of the invention synergize with various antibiotics, the following method was employed. Fractional Inhibitory Concentration (FIC) was used to determine synergy of peptides combined with antibiotics (e.g., carbenicillin/ciprofloxacin) against Pseudomonas aeruginosa. The following methodology was followed:
(§3) (1) Determination of MIC of cationic peptides (MIC A):
(§4) 100 μl Mueller Hinton broth (MHB) was added per well
(§5) 12.5 μl of 10× test concentration peptide was added per well to get final peptide concentration of e.g., 128, 64, 32, . . . 0.025 μg/ml from row 1 to 11;
(§6) 10 μl of 10^−4 dilution of overnight bacterial culture was added per well.
(§7) (2) Determination of MIC of Carbenicillin/Ciprofloxacin (MIC B):
(§8) 100 μl MHB was added per well;
(§9) 100 μl of 2× test concentration of antibiotic was added in the first well of the row, and doubling dilutions performed across the plate from column 1 to 11;
(§10) (3) Determination of MIC of antibiotics (B) when combined with peptides at concentration A:
(§11) 100 μl Carbenicillin (512 μg/ml) or Ciprofloxacin (8 μg/ml) was added in each well of column 1; doubling dilutions were performed across the plate;
(§12) 100 μl of the peptide was added in all wells of row 1, mixed, and 100 μl withdrawn and added to row 2, etc., creating a checkerboard titration.
(§13) 10 μl of 10^−4 dilution of overnight culture was added per well;
(§14) plates were incubated at 37EC for 18-24 hours. Combination MIC values A and B were taken as the lowest concentration of drug that reduced bacterial growth by more than 50% in any given column.
(§15) (4) FIC index=FICA+FICB=(A)/MIC A+(B)/MIC B. An FIC index of approximately 0.5 or less indicates synergy; 1.0 reflects additivity; and >1.0 indicates antagonism.

[2] = tested on: β-lactamase derepressed mutant (H547) of P. aeruginosa; test: microbe, parasite or virus in culture; type: cell-based; conditions: P. aeruginosa H547; for (B) MIC of Carb when combined with peptide: Carbenicillin with peptide at concentration (A); for MIC A MIC of Peptides: peptide alone; for (A) Peptide doses together with Carb: peptide concentration in combination with Carbenicillin
Description: as §1, §2, §3, §4, §5, §6, §7, §8, §9, §10, §11, §12, §13, §14, §15

P. aeruginosa = test: MIC, broth microdilution assay in polypropylene microtiter trays; type: cell-based; conditions: average of three separate experiments
In short: (§16)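 Broth microdilution in polypropylene microtiter trays; MIC taken as lowest peptide concentration giving no change in OD over a set period.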

E. coli [3] = test: as above; type: cell-based; conditions: average of three separate experiments
In short: as §16

S. epidermis = test: as above; type: cell-based; conditions: average of three separate experiments
In short: as §16

S. aureus = test: as above; type: cell-based; conditions: average of three separate experiments
In short: as §16

S. aureus K147 = test: as above; type: cell-based; conditions: average of three separate experiments
In short: as §16

P. aeruginosa (H103) = test: Synergy study (checkerboard titration) with hen white lysozyme; type: cell-based; conditions: for Lowest [CP] showing synergy: cationic peptide concentration, combined with lysozyme; for Lowest [Lyso] showing synergy: lysozyme concentration, combined with the peptide
Description: as §1

E. coli [4] = test: as above; type: cell-based; conditions: for Lowest [CP] showing synergy: cationic peptide concentration, combined with lysozyme; for Lowest [Lyso] showing synergy: lysozyme concentration, combined with the peptide
Description: as §1

Salmonella typhi = test: as above; type: cell-based; conditions: for Lowest [CP] showing synergy: cationic peptide concentration, combined with lysozyme; for Lowest [Lyso] showing synergy: lysozyme concentration, combined with the peptide
Description: as §1

[5] = tested on: Pseudomonas aeruginosa strain M2; test: Protection of neutropenic CD-1 mice challenged with Pseudomonas aeruginosa; type: in vivo; set-up: Survival post bacterial challenge, surviving mice: reference not given here; conditions: for Survival (%) post bacterial challenge: PBS 8
Description: CD-1 mice were induced to be neutropenic via 3 intraperitoneal injections of cyclophosphamide ([…]) every another day. Immediately after the third administration of cyclophosphamide, the mice were challenged by intraperitoneal injection of Pseudomonas aeruginosa strain M2 (200-300 organisms/mouse). Cationic peptides (200 µg per mouse=8 mg/kg) in 100 µl buffered citrate were injected intraperitoneally at 30 min (single dose) or 30 min and 16 hrs (double dose) post bacterial challenge, respectively. The data were the average values of 2 individual experiments. PBS was used as a control. […] In general single dose protection studies gave better protection than double dose experiments.

[6] = Lethal endotoxemia in galactosamine-sensitized mice; type: in vivo, CD-1 mice; conditions: peptide 200 μg intraperitoneal within 10 min of 10 μg LPS; 24 hours post injection; 5 mice per group; no peptide 100
Description: To confirm this in vivo, endotoxic shock was induced by intraperitoneal injection of 10 μg of E.coli 0111:B4 LPS in phosphate-buffered saline (PBS; pH 7.2) into galactosamine-sensitized 8- to 10- week old female CD-1 mice (5 per group). In experiments involving peptides, 200 μg in 100 μl of sterile water was injected at separate intraperitoneal sites within 10 min of LPS injection. Survival was monitored at 24 hours post injection.

[7] = double dose (200 μg per mouse i.p. at 30 min and 16 hrs), 16 hr
[8] = single dose (200 μg per mouse i.p. at 30 min), 16 hr

CC[C@H](C)[C@H](NC(=O)CNC(=O)[C@@H](NC(=O)[C@H](CCCCN)NC(=O)[C@H](CCCCN)NC(=O)[C@H](Cc1ccccc1)NC(=O)[C@H](CCCCN)NC(=O)[C@H](Cc1c[nH]c2ccccc12)NC(=O)[C@@H](N)CCCCN)[C@@H](C)CC)C(=O)NCC(=O)N[C@@H](C)C(=O)N[C@H](C(=O)N[C@@H](CC(C)C)C(=O)N[C@@H](CCCCN)C(=O)N[C@H](C(=O)N[C@@H](CC(C)C)C(=O)N[C@@H](CCCCN)C(=O)N[C@H](C(=O)N[C@@H](CC(C)C)C(=O)N[C@H](C(=O)N[C@H](C(=O)NCC(=O)N[C@@H](CC(C)C)C(=O)N1CCC[C@H]1C(=O)N[C@@H](C)C(=O)N[C@@H](CC(C)C)C(=O)N[C@@H](CCCCN)C(=O)N[C@@H](CC(C)C)C(=O)N[C@H](C(=O)N[C@@H](CC(C)C)C(=O)N[C@@H](CCCCN)C(=O)O)[C@@H](C)O)[C@@H](C)O)[C@@H](C)O)C(C)C)C(C)C)C(C)C [CM6]
(B) MIC of Cipro when combined with peptide [1]: .125 µg/mL | MIC A MIC of Peptides [1]: 1 µg/mL | (A) Peptide doses together with Cipro [1]: 1 µg/mL | (B) MIC of Carb when combined with peptide [2]: 64 µg/mL | MIC A MIC of Peptides [2]: 2 µg/mL | (A) Peptide doses together with Carb [2]: 1 µg/mL | MIC P. aeruginosa (P. aeruginosa): 8 µg/mL | MIC E. coli (E. coli [3]): 2 µg/mL | MIC S. epidermis (S. epidermis): 8 µg/mL | MIC S. aureus (S. aureus): 32 µg/mL | MIC S. aureus K147 (S. aureus K147): 32 µg/mL | FIC for combination of cationic peptide and lysozyme (P. aeruginosa (H103)): 0.63 | Lowest [CP] showing synergy (P. aeruginosa (H103)): 5.21 µg/mL | Lowest [Lyso] showing synergy (P. aeruginosa (H103)): 125 µg/mL | FIC for combination of cationic peptide and lysozyme (E. coli [4]): 0.08 | Lowest [CP] showing synergy (E. coli [4]): 0.326 µg/mL | Lowest [Lyso] showing synergy (E. coli [4]): 7.8 µg/mL | FIC for combination of cationic peptide and lysozyme (Salmonella typhi): 0.50 | Lowest [CP] showing synergy (Salmonella typhi): 5.21 µg/mL | Lowest [Lyso] showing synergy (Salmonella typhi): 7.8 µg/mL | Survival post bacterial challenge, surviving mice [5, 7]: 14 | Survival post bacterial challenge, surviving mice ([5]; double dose, 24 hr): 14 | Survival post bacterial challenge, surviving mice ([5]; double dose, 41 hr): 11 | Survival post bacterial challenge, surviving mice ([5]; double dose, 48 hr): 9 | Survival post bacterial challenge, surviving mice ([5]; double dose, 64 hr): 6 | Survival (%) post bacterial challenge ([5]; double dose, 64 hr): 42% | Survival post bacterial challenge, surviving mice ([5]; double dose, 72 hr): 6 | Survival (%) post bacterial challenge ([5]; double dose, 72 hr): 42% | Survival post bacterial challenge, surviving mice ([5]; double dose, 96 hr): 5 | Survival (%) post bacterial challenge ([5]; double dose, 96 hr): 35% | Survival post bacterial challenge, surviving mice [5, 8]: 15 | Survival post bacterial challenge, surviving mice ([5]; single dose, 24 hr): 15 | Survival post bacterial challenge, surviving mice ([5]; single dose, 41 hr): 13 | Survival post bacterial challenge, surviving mice ([5]; single dose, 48 hr): 11 | Survival post bacterial challenge, surviving mice ([5]; single dose, 64 hr): 9 | Survival (%) post bacterial challenge ([5]; single dose, 64 hr): 60% | Survival post bacterial challenge, surviving mice ([5]; single dose, 72 hr): 9 | Survival (%) post bacterial challenge ([5]; single dose, 72 hr): 60% | Survival post bacterial challenge, surviving mice ([5]; single dose, 96 hr): 7 | Survival (%) post bacterial challenge ([5]; single dose, 96 hr): 46% | Mortality (%) [6]: 100%

KWKSFIKKLTKAAKKVVTTAKKPLIV [CM2]
(B) MIC of Cipro when combined with peptide [1]: .25 µg/mL | MIC A MIC of Peptides [1]: 1 µg/mL | (A) Peptide doses together with Cipro [1]: .5 µg/mL | (B) MIC of Carb when combined with peptide [2]: 64 µg/mL | MIC A MIC of Peptides [2]: 4 µg/mL | (A) Peptide doses together with Carb [2]: .5 µg/mL | MIC P. aeruginosa (P. aeruginosa): 3 µg/mL | MIC E. coli (E. coli [3]): 1 µg/mL | MIC S. epidermis (S. epidermis): 5 µg/mL | MIC S. aureus (S. aureus): >64 µg/mL | MIC S. aureus K147 (S. aureus K147): >64 µg/mL | FIC for combination of cationic peptide and lysozyme (P. aeruginosa (H103)): 0.37 | Lowest [CP] showing synergy (P. aeruginosa (H103)): 1.3 µg/mL | Lowest [Lyso] showing synergy (P. aeruginosa (H103)): 7.8 µg/mL | FIC for combination of cationic peptide and lysozyme (E. coli [4]): 0.25 | Lowest [CP] showing synergy (E. coli [4]): 0.081 µg/mL | Lowest [Lyso] showing synergy (E. coli [4]): 7.8 µg/mL | FIC for combination of cationic peptide and lysozyme (Salmonella typhi): 0.53 | Lowest [CP] showing synergy (Salmonella typhi): 2.61 µg/mL | Lowest [Lyso] showing synergy (Salmonella typhi): 31.3 µg/mL | Survival post bacterial challenge, surviving mice [5, 7]: 14 | Survival post bacterial challenge, surviving mice ([5]; double dose, 24 hr): 14 | Survival post bacterial challenge, surviving mice ([5]; double dose, 41 hr): 10 | Survival post bacterial challenge, surviving mice ([5]; double dose, 48 hr): 7 | Survival post bacterial challenge, surviving mice ([5]; double dose, 64 hr): 7 | Survival (%) post bacterial challenge ([5]; double dose, 64 hr): 50% | Survival post bacterial challenge, surviving mice ([5]; double dose, 72 hr): 7 | Survival (%) post bacterial challenge ([5]; double dose, 72 hr): 50% | Survival post bacterial challenge, surviving mice ([5]; double dose, 96 hr): 6 | Survival (%) post bacterial challenge ([5]; double dose, 96 hr): 42% | Survival post bacterial challenge, surviving mice [5, 8]: 15 | Survival post bacterial challenge, surviving mice ([5]; single dose, 24 hr): 15 | Survival post bacterial challenge, surviving mice ([5]; single dose, 41 hr): 13 | Survival post bacterial challenge, surviving mice ([5]; single dose, 48 hr): 12 | Survival post bacterial challenge, surviving mice ([5]; single dose, 64 hr): 11 | Survival (%) post bacterial challenge ([5]; single dose, 64 hr): 73% | Survival post bacterial challenge, surviving mice ([5]; single dose, 72 hr): 11 | Survival (%) post bacterial challenge ([5]; single dose, 72 hr): 73% | Survival post bacterial challenge, surviving mice ([5]; single dose, 96 hr): 10 | Survival (%) post bacterial challenge ([5]; single dose, 96 hr): 66% | Mortality (%) [6]: 80%
